Measured values published in patent US8450053B2, “ZAP-70 as predictor and modulator of effector function of T cells” (University of Maryland, Baltimore, priority 2007, dated 2013).
“Also recorded” adds a separate entry of the source.

Experiments:
Assay type in all cases: cell-based, mouse
ZAP-70 = experiment: siRNA-mediated knockdown of ZAP-70 in OVA-specific memory CD4 T cells
Experimental: Cy3-labeled ZAP-70 specific siRNA Sense (5′→3′)/Cy3/GGCGGAUGGACUAAUUUACtt (SEQ ID NO: 10); Antisense (5′→3′) GUAAAUUAGUCCAUCCGCCtt (SEQ ID NO:11) or control GAPDH siRNA obtained from Ambion (Austin, Tex.) was delivered at a final concentration of 5 μM into 1.0×10^6 purified resting memory OVA-specific CD4 T cells using the mouse T cell nucleofector kit (Amaxa Inc., Gaithersburg, Md.) according to the manufacturers instructions and similar to the approach previously employed for siRNA transfections in mouse T cells (Sabbagh et al., 2006, Proc. Natl. Acad. Sci. USA 103:18703-18708). Following nucleofection, cell suspensions were cultured in media in 24 well plates with APC (2×10^6/well) and OVA-peptide (800 ng/ml), followed by incubation at 37° C. for 18 hrs. After 18 hrs, Golgistop (BD Pharmingen, USA) (0.66 μl/ml of culture) was added, cells were incubated for an additional 6 hrs, and subsequently staining for surface expression of CD4, KJ1-26 and CD25, and intracellular expression of ZAP-70 and IFN-γ as above.

memory CD4 T cells = experiment: Inhibitor assay: OVA-specific memory CD4 T cells stimulated with OVA/APC, flow cytometry and intracellular cytokine staining
Experimental: (§1) Intracellular cytokine staining (ICS) analysis of signaling intermediates and cytokines was performed as previously described (Bingaman et al., 2005, supra; Ahmadzadeh and Farber, 2002, supra). Briefly, naive or memory CD4 T cells were cultured with APC and 800 ng/ml OVA peptide for time points of 0-48 hrs, and monensin (Golgistop™, BD Pharmingen) was added 6 hrs prior to harvesting. Cells were stained with antibodies for surface markers CD4, CD25, CD44, KJ1-26, fixed (Cytofix™ buffer, BD Pharmingen), permeabilized, and stained intracellularly with fluorochrome-conjugated antibodies to cytokines, signaling intermediates, and analyzed by flow cytometry.
(§2) Six-color flow cytometry was performed on BD LSR II flow cytometer (BD Biosciences) using FITC, PE, PERCP and PE-Cy7, allophycocyanin-Cy7, and allophycocyanin as fluorochromes (BD Biosciences, e-biosciences, Invitrogen/caltag). CD4 T cells stained with single color fluorochromes were used for compensation, background values were established with isotype controls, and data were analyzed using BD FACSDiva™ software (BD Biosciences). Fluorochrome-conjugated antibodies directed against CD4 (clone GK1.5), CD25 (PC61), CD69 (H1.2F3), CD62L (MEL-14), CD44 (IM7), CD3ε (145-2C11), IFN-γ (XMG1.2), phospho-ZAP-70 (17-P), phospho-PLC-γ (27/PLC), and phospho-Stat1 (clone 4a) were all purchased from BD-Pharmingen (San Diego, Calif.). PE- and APC-conjugated KJ1-26 specific for the DO11.10 TCR clonotype were purchased from CALTAG Laboratories (Burlingame, Calif.). PE- and FITC-conjugated ZAP-70 (1E7.2) was obtained from Invitrogen (Carlsbad, Calif.), and FITC-conjugated phospho-tyrosine (PT-66) from Sigma (St. Louis, Mo.), and phospho-p38 (28B10) and phospho-erk1/2 (E10) were purchased from Cell signaling technology, Inc. (Danvers, Mass.). For most analyses, a given marker was analyzed using several different fluorochromes to eliminate errors based on compensation.
(§3) Naive or memory CD4 T cells (1×10^6) were cultured with APC (3×10^6) in total volume of 1 ml of Clicks medium containing 800 ng/ml OVA peptide for time points of 0-24 hrs along with inhibitors cycloheximide (Sigma, 50 μg/ml) or piceatannol (Calbiochem, 12 μM of 3,4,3′,5′-tetrahydroxy-trans-stilbene). Solvent alone served as a vehicle control.

naive CD4 T cells = experiment: Inhibitor assay: OVA-specific naive CD4 T cells stimulated with OVA/APC, flow cytometry; conditions: cycloheximide 50 μg/ml
Experimental: as §1, §2, §3

[1] = tested on: naive and memory CD4 T cells; experiment: Viability of naive and memory CD4 T cells cultured with cycloheximide; conditions: after 24 hrs in cycloheximide, average
Experimental: as §3

[2] = memory CD4 T cells, OVA/APC 6 hrs, piceatannol 12 μM
[3] = antigen-stimulated memory CD4 T cells, 24 hrs, cycloheximide 50 μg/ml
[4] = memory CD4 T cells, +/-antigen, 6 hrs, cycloheximide 50 μg/ml
[5] = naive CD4 T cells, +/-antigen, 6 hrs
[6] = naive T cells, antigenic stimulation 24 hrs

ZAP-70 specific siRNA: Cy3-labeled ZAP-70 specific siRNA, sense GGCGGAUGGACUAAUUUACtt (SEQ ID NO: 10), antisense GUAAAUUAGUCCAUCCGCCtt (SEQ ID NO:11) (sense GGCGGAUGGACUAAUUUACTT; antisense GUAAAUUAGUCCAUCCGCCTT; Cy3 label, further chemistry not given here)
early IFN-γ production (ZAP-70; memory CD4 T cells, ZAP-70 downmodulated using siRNA): inhibited
reduction in the proportion of memory T cells producing IFN-γ (ZAP-70; siRNA 5 μM, OVA/APC 24 hrs, vs siRNA- and GAPDH siRNA transfectants): 50%
ZAP-70 expression (MFI) (ZAP-70; silenced (siRNA+) vs unsilenced (siRNA-) memory CD4 T cells, siRNA 5 μM, OVA/APC 24 hrs): reduction in ZAP-70 expression

Oc1cc(O)cc(/C=C/c2ccc(O)c(O)c2)c1 [piceatannol, 3,4,3′,5′-tetrahydroxy-trans-stilbene]
ZAP-70 expression, dose response (memory CD4 T cells; antigen-stimulated memory CD4 T cells, +/-OVA/APC, six hrs): reduced ZAP-70 expression in a dose-dependent fashion
ZAP-70 expression (memory CD4 T cells; [2]): specifically reduced
basal level of CD25 (memory CD4 T cells; [2]): without affecting
rapid IFN-γ production (memory CD4 T cells; [2]): striking inhibition; also recorded: completely blocked
total p-Tyr content (memory CD4 T cells; [2]): without affecting

C[C@@H]1C[C@@H]([C@H](O)CC2CC(=O)NC(=O)C2)C(=O)[C@@H](C)C1 [cycloheximide]
CD25 up-regulation (memory CD4 T cells; [3]): inhibited
memory CD4 T cells maintaining high level of ZAP-70 expression (memory CD4 T cells; [3]): > 50%
intracellular tyrosine phosphorylation (memory CD4 T cells; [4]): did not affect
resting state level of ZAP-70 (memory CD4 T cells; [4]): did not affect
p-Tyr levels (memory CD4 T cells; memory T cells, 24 hrs, cycloheximide 50 μg/ml): did not affect
increases in total intracellular p-Tyr levels (naive CD4 T cells; activated naive CD4 T cells, 24 hrs): significantly inhibited
intracellular tyrosine phosphorylation (naive CD4 T cells; [5]): did not affect
resting state level of ZAP-70 (naive CD4 T cells; [5]): did not affect
up-regulation of CD25 expression (naive CD4 T cells; [6]): completely inhibited
up-regulation of ZAP-70 expression (naive CD4 T cells; [6]): completely inhibited
Viability [1]: 70%
